Test results: article PMC9356275, “A quantitative high-throughput screen identifies compounds that lower expression of the SCA2-and ALS-associated gene ATXN2” (The Journal of Biological Chemistry, 2022)
Structures can show the parent of a compound that is named as a salt. Where two headings read alike, the source gives them in different places.

Assays:
Format in all cases: cell-based, human
ATXN2-luc [1] = test: MSSR hit retest: ATXN2-luc luciferase assay, average of H2 and S1 cells (1 and 10 uM); settings: Homo sapiens; for activity at 1 µM: read-out: H2&S1 ave luc 1uM; for activity at 10 µM: head line r3 10uM; for activity at 10 µM / activity: read-out: H2&S1 ave luc 10uM
Text: (§1) Supplement mmc2.xlsx, sheet "43 annotated compounds"

ATXN2-luc [2] = test: MSSR pilot screen: ATXN2-luc luciferase assay (Bright-Glo) in H2 cells, single 10 μM dose; settings: for SD from mean (ATXN2-luc, Z-score): H2 cells, single dose (title: 10 μM compound), overnight; for ¦Score/1SD¦: absolute score divided by 1SD (0.891 or 0.9)
H2 and S1 cells = test: Paired MTT viability assay, average of H2 and S1 cells (1 and 10 uM); settings: Homo sapiens
Text: as §1

ATXN2-luc [3] = test: NCATS qHTS (LOPAC pilot, primary and confirmation): ATXN2-luc in S2 cells, 1536-well, Steady-Glo; settings: LOPAC library screening optimization; for AC50: Homo sapiens
Procedure: We next performed a pilot screen assay to optimize the 1536-well qHTS using S2 cells. […] Cytotoxicity was determined using a multiplexed viability assay (CellTiter-Fluor, a fluorescence-based viability assay using Gly-Phe-7-amino-4-trifluoromethylcoumarin substrate).
CellTiter-Fluor was used to determine compound effect on cell viability, and Steady-Glo was used to measure luciferase in a multiplexed assay.
The primary assay was conducted at the NCATS NIH Chemical Genomics Center laboratory. About 4 μl of S2 cell suspension in phenol red–free DMEM was dispensed into wells of 1536-well assay plates. […] Next, SteadyGlo luciferase substrate detection reagent (3 μl) was added to each well and incubated for an additional 5 min at room temperature. Luminescence was then measured on the ViewLux imager equipped with clear filters using a 2 s exposure. All screening operations were performed on a fully integrated robotic system (Kalypsys) containing one RX-130 and two RX-90 anthropomorphic robotic arms (Stäubli). Vehicle-only plates, with DMSO being pin-transferred to columns 5 to 48, were inserted uniformly at the beginning and the end of each library in order to monitor and record any shifts in assay performance.

ATXN2-luc [4] = test: Secondary assays: ATXN2-luc in S2 and H2 cells, 12 doses, Bright-Glo; settings: Homo sapiens; H2 and S2 values used as replicates, 24 h; read-out: IC50 for lowering ATXN2-luc
Procedure: The values for H2 and S2 were used as replicates to calculate IC50s and to assess cell viability.
Compounds were plated at 2× concentrations in phenol red–free DMEM in 25 μl in 384-well plates with each compound dose plated in triplicate. An equal volume of S2, H2, or SC cells (24,000 cells/well) suspended in phenol red–free DMEM with 10% fetal bovine serum and 1× penicillin/streptomycin were added. Cells were grown 24 h and then assayed first by using the CellTiter-Fluor reagent (20 μl) followed by the addition of Bright-Glo (65 μl) luciferase assay, using a multimode plate reader (Beckman; DT880). Values were reported as the mean ± SD with n = 3. IC50s were determined by the Hill coefficient method using an online tool (https://www.aatbio.com/tools/ic50-calculator).

[5] = 1 uM compound, average of H2 and S1 cells
[6] = pilot screen at 10 µM compound, H2 cells expressing ATXN2-luc
[7] = 1 uM compound, read-out: H2&S1 ave MTT 1uM
[8] = 10 uM compound, read-out: H2&S1 ave MTT 10uM
[9] = read-out: H2&S1 ave MTT 1uM, 1 uM compound
[10] = read-out: H2&S1 ave MTT 10uM, 10 uM compound
[11] = pilot screen, H2 cells expressing ATXN2-luc, single dose printed as 10 μM compound

## C[C@@H]1O[C@@H](O[C@H]2CC[C@]3(C=O)[C@H]4CC[C@]5(C)[C@@H](C6=CC(=O)OC6)CC[C@]5(O)[C@@H]4CC[C@]3(O)C2)[C@H](O)[C@H](O)[C@H]1O [CONVALLATOXIN]
ATXN2-luc [1]; [5]
  activity at 1 µM: 12%
ATXN2-luc [1]; average of H2 and S1 cells
  activity at 10 µM: 11%
ATXN2-luc [2]
  SD from mean (ATXN2-luc, Z-score): -3.689 SD
ATXN2-luc [2]; pilot screen
  SD from mean (pilot screen): -3.689 SD
  ¦Score/1SD¦: 4.10
ATXN2-luc [2]; [6]
  SD from mean (pilot screen): -3.689
H2 and S1 cells; [7]
  viability at 1 µM: 62.2%
H2 and S1 cells; [8]
  viability at 10 µM: 70%

## CO[C@H]1C[C@H](O[C@H]2CC[C@]3(C=O)[C@H]4CC[C@]5(C)[C@@H](C6=CC(=O)OC6)CC[C@]5(O)[C@@H]4CC[C@]3(O)C2)O[C@H](C)[C@H]1O [CYMARIN]
ATXN2-luc [1]
  activity at 1 µM: 14%
  activity: 16%
ATXN2-luc [2]
  SD from mean (ATXN2-luc, Z-score): -4.099 SD
ATXN2-luc [2]; pilot screen
  SD from mean (pilot screen): -4.099 SD
  ¦Score/1SD¦: 4.55
ATXN2-luc [2]; [6]
  SD from mean (pilot screen): -4.099
H2 and S1 cells; [9]
  viability at 1 µM: 54.2%
H2 and S1 cells; [10]
  viability at 10 µM: 59.3%

## CC(C)=CCc1c(O)cc2occ(-c3ccc4c(c3)OCO4)c(=O)c2c1O [DERRUBONE]
ATXN2-luc [1]; [5]
  activity at 1 µM: 11%
ATXN2-luc [1]; average of H2 and S1 cells
  activity at 10 µM: 15%
ATXN2-luc [2]
  SD from mean (ATXN2-luc, Z-score): -3.621 SD
ATXN2-luc [2]; pilot screen
  SD from mean (pilot screen): -3.621 SD
  ¦Score/1SD¦: 4.02
ATXN2-luc [2]; [6]
  SD from mean (pilot screen): -3.621
H2 and S1 cells; [7]
  viability at 1 µM: 107%
H2 and S1 cells; [8]
  viability at 10 µM: 101%

## C[C@H]1O[C@@H](O[C@H]2[C@@H](O)C[C@H](O[C@H]3[C@@H](O)C[C@H](O[C@H]4CC[C@@]5(C)[C@H](CC[C@@H]6[C@@H]5CC[C@]5(C)[C@@H](C7=CC(=O)OC7)CC[C@]65O)C4)O[C@@H]3C)O[C@@H]2C)C[C@H](O)[C@@H]1O [DIGITOXIN]
ATXN2-luc [1]
  activity at 1 µM: 27%
  activity: 19%
ATXN2-luc [2]
  SD from mean (ATXN2-luc, Z-score): -4.100 SD
ATXN2-luc [2]; pilot screen
  SD from mean (pilot screen): -4.100 SD
  ¦Score/1SD¦: 4.56
ATXN2-luc [2]; [6]
  SD from mean (pilot screen): -4.100
H2 and S1 cells; [9]
  viability at 1 µM: 34.3%
H2 and S1 cells; [10]
  viability at 10 µM: 49.1%

## C[C@]12CC[C@H](O)C[C@H]1CC[C@@H]1[C@@H]2CC[C@]2(C)[C@@H](C3=CC(=O)OC3)CC[C@]12O [Digitoxigenin]
ATXN2-luc [1]; [5]
  activity at 1 µM: 38%
ATXN2-luc [1]; average of H2 and S1 cells
  activity at 10 µM: 13%
ATXN2-luc [2]
  SD from mean (ATXN2-luc, Z-score): -3.629 SD
ATXN2-luc [2]; pilot screen
  SD from mean (pilot screen): -3.629 SD
  ¦Score/1SD¦: 4.07
ATXN2-luc [2]; [6]
  SD from mean (pilot screen): -3.629
H2 and S1 cells; [7]
  viability at 1 µM: 81.6%
H2 and S1 cells; [8]
  viability at 10 µM: 74.8%

## C[C@]12CC[C@H](O)C[C@H]1CC[C@@H]1[C@@H]2C[C@@H](O)[C@]2(C)[C@@H](C3=CC(=O)OC3)CC[C@]12O [Digoxigenin]
ATXN2-luc [1]; [5]
  activity at 1 µM: 90%
ATXN2-luc [1]; average of H2 and S1 cells
  activity at 10 µM: 22%
ATXN2-luc [2]
  SD from mean (ATXN2-luc, Z-score): -3.264 SD
ATXN2-luc [2]; pilot screen
  SD from mean (pilot screen): -3.264 SD
  ¦Score/1SD¦: 3.66
ATXN2-luc [2]; [11]
  SD from mean (pilot screen): -3.264
H2 and S1 cells; [7]
  viability at 1 µM: 60.4%
H2 and S1 cells; [8]
  viability at 10 µM: 31.6%

## CC[C@H]1CN2CCc3cc(OC)c(OC)cc3[C@@H]2C[C@@H]1C[C@H]1NCCc2cc(OC)c(OC)cc21 [Emetine dihydrochloride]
ATXN2-luc [1]; [5]
  activity at 1 µM: 18%
ATXN2-luc [1]; average of H2 and S1 cells
  activity at 10 µM: 19%
ATXN2-luc [2]
  SD from mean (ATXN2-luc, Z-score): -4.840 SD
ATXN2-luc [2]; pilot screen
  SD from mean (pilot screen): -4.840 SD
  ¦Score/1SD¦: 5.43
ATXN2-luc [2]; [6]
  SD from mean (pilot screen): -4.840
H2 and S1 cells; [7]
  viability at 1 µM: 59.7%
H2 and S1 cells; [8]
  viability at 10 µM: 58.1%

## CC(=O)O[C@H]1CC[C@@]2(C)[C@H](CC[C@@H]3[C@@H]2CC[C@]2(C)[C@@H](C4=CC(=O)OC4)[C@@H](OC(C)=O)C[C@]32O)C1 [GITOXIGENIN DIACETATE]
ATXN2-luc [1]
  activity at 1 µM: 27%
  activity: 21%
ATXN2-luc [2]
  SD from mean (ATXN2-luc, Z-score): -4.261 SD
ATXN2-luc [2]; pilot screen
  SD from mean (pilot screen): -4.261 SD
  ¦Score/1SD¦: 4.73
ATXN2-luc [2]; [6]
  SD from mean (pilot screen): -4.261
H2 and S1 cells; [9]
  viability at 1 µM: 39.7%
H2 and S1 cells; [10]
  viability at 10 µM: 40.3%

## C[C@H]1O[C@@H](O[C@H]2[C@@H](O)C[C@H](O[C@H]3[C@@H](O)C[C@H](O[C@H]4CC[C@@]5(C)[C@H](CC[C@@H]6[C@@H]5CC[C@]5(C)[C@@H](C7=CC(=O)OC7)[C@@H](O)C[C@]65O)C4)O[C@@H]3C)O[C@@H]2C)C[C@H](O)[C@@H]1O [GITOXIN]
ATXN2-luc [1]; [5]
  activity at 1 µM: 21%
ATXN2-luc [1]; average of H2 and S1 cells
  activity at 10 µM: 12%
ATXN2-luc [2]
  SD from mean (ATXN2-luc, Z-score): -4.086 SD
ATXN2-luc [2]; pilot screen
  SD from mean (pilot screen): -4.086 SD
  ¦Score/1SD¦: 4.54
ATXN2-luc [2]; [6]
  SD from mean (pilot screen): -4.086
H2 and S1 cells; [7]
  viability at 1 µM: 28.7%
H2 and S1 cells; [8]
  viability at 10 µM: 40.3%

## CO[C@H]1[C@H](O)[C@H](O[C@H]2CC[C@@]3(C)[C@H](CC[C@@H]4[C@@H]3CC[C@]3(C)[C@@H](C5=CC(=O)OC5)CC[C@]43O)C2)O[C@@H](C)[C@@H]1O [NERIIFOLIN]
ATXN2-luc [1]
  activity at 1 µM: 17%
  activity: 17%
ATXN2-luc [2]
  SD from mean (ATXN2-luc, Z-score): -3.045 SD
ATXN2-luc [2]; pilot screen
  SD from mean (pilot screen): -3.045 SD
  ¦Score/1SD¦: 3.38
ATXN2-luc [2]; [11]
  SD from mean (pilot screen): -3.045
H2 and S1 cells; [9]
  viability at 1 µM: 30.8%
H2 and S1 cells; [10]
  viability at 10 µM: 36.1%

## COC(=O)C1=C(C)NC(C)=C(C(=O)OCCN(C)Cc2ccccc2)C1c1cccc([N+](=O)[O-])c1 (stereo not drawn) [NICARDIPINE]
ATXN2-luc [1]; [5]
  activity at 1 µM: 112%
ATXN2-luc [1]; average of H2 and S1 cells
  activity at 10 µM: 61%
ATXN2-luc [2]
  SD from mean (ATXN2-luc, Z-score): -2.782 SD
ATXN2-luc [2]; pilot screen
  SD from mean (pilot screen): -2.782 SD
  ¦Score/1SD¦: 3.12
ATXN2-luc [2]; [11]
  SD from mean (pilot screen): -2.782
H2 and S1 cells; [7]
  viability at 1 µM: 140%
H2 and S1 cells; [8]
  viability at 10 µM: 87%

## CO[C@H]1C[C@H](O[C@H]2CC[C@]3(C)[C@H]4CC[C@]5(C)[C@@H](C6=CC(=O)OC6)CC[C@]5(O)[C@@H]4CC[C@]3(O)C2)O[C@H](C)[C@H]1O [PERIPLOCYMARIN]
ATXN2-luc [1]
  activity at 1 µM: 75%
  activity: 17%
ATXN2-luc [2]
  SD from mean (ATXN2-luc, Z-score): -2.759 SD
ATXN2-luc [2]; pilot screen
  SD from mean (pilot screen): -2.759 SD
  ¦Score/1SD¦: 3.07
ATXN2-luc [2]; [11]
  SD from mean (pilot screen): -2.759
H2 and S1 cells; [9]
  viability at 1 µM: 58.7%
H2 and S1 cells; [10]
  viability at 10 µM: 37.1%

## C[C@@H]1O[C@@H](O[C@H]2C[C@@H](O)[C@]3(CO)[C@@H]4[C@@H](O)C[C@]5(C)[C@H](C6=CC(=O)OC6)CC[C@@]5(O)[C@H]4CC[C@@]3(O)C2)[C@H](O)[C@H](O)[C@@H]1O.O.O.O.O.O.O.O.O [Strophantine octahydrate]
ATXN2-luc [2]
  SD from mean (ATXN2-luc, Z-score): -3.624 SD
ATXN2-luc [3]; logarithm of AC50 (negative values), read-out: Log AC50 (converted)
  AC50: 89.1 nM
ATXN2-luc [3]; read-out: AC50
  AC50: 89.1 nM
ATXN2-luc [3]; curve-fit parameter
  Efficacy: -95.9071
  Inf Activity: -89.7119

## CC(C)c1cc(-c2n[nH]c(=O)n2-c2ccc3c(ccn3C)c2)c(O)cc1O [ganetespib]
ATXN2-luc [4]
  IC50: 30 nM
